# Experimental data published in patent US20040248816A1, “Treatment of migraine” (Boehringer Ingelheim International GmbH, priority 2003, published 2004).
# Tested on: vasodilatation of the facial skin, induced by electrical ganglion stimulation
# Experiment: Facial skin blood flow: vasodilatation of the facial skin induced by electrical trigeminal ganglion stimulation
# Format: in vivo, rat
# Conditions: anaesthetised male Wistar rats, i.v. 5 minutes before the second stimulation, BIBN 4096 Cl 0.03 mg/kg, sumatriptan 1.0 mg/kg, combination (0.03 mg + 1.0 mg)/kg; for % of trigeminus stimulation: first stimulation as control, saline control 82.7 ± 4.4
# Procedure: Measurement of the Facial Skin Blood Flow
# The facial skin blood flow was measured by a modified method as described by Escott et al. (Escott, K. J., Beattie, D. T., Connor, H. E., Brain, S. D. (1995), Trigeminal ganglion stimulation increases facial skin blood flow in the rat: a major role for calcitonin gene-related peptide, Brain Research, 669(1), 93-99). Fasting male Wistar rats (strain CHbb:THOM, 280-320 g) were anaesthetised with sodium pentobarbitone (initially with 60 mg/kg i.p. and maintained throughout the experiment with an intraperitoneal infusion of 30 mg/kg/h through a 23 G needle using a solution of 10 mg/ml). Both sides of the buccal region of the facial skin were shaved and depilated with a commercially available depilatory cream (Pilca, Schwarzkopf & Henkel, 40551 Düsseldorf, Germany). The trachea was fitted with a cannula, and the animals were artificially ventilated (80 breaths per minute) with ambient air enriched with oxygen. The body temperature was maintained at 37° C. using an automatic heating pad. The left femoral artery and left femoral vein were fitted with cannulas for continuous measurement of the arterial blood pressure or the intravenous administration of test compounds. A neuromuscular blockade was obtained by intravenous administration of pancuronium bromide (1 mg/kg/0.5 ml, 5 minutes before each electrical stimulation). The heart rate was derived from the blood pressure signal. The blood pressure and heart rate were recorded continuously during the course of the experiment in order to assess the level of anaesthesia and monitor the cardiovascular activities of the pharmaceutical compositions used in this study.
# The animals were placed in a stereotactic frame, and a longitudinal cut was made in the scalp. A small hole was drilled in the skull (on the left or right) and a bipolar electrode (Rhodes SNEX-100, obtained from David Kopf Instruments, Tujunga, 91042 Calif., USA) was lowered by means of a micromanipulator into the trigeminal ganglion (0.32 cm dorsally of the bregma, ±0.30 cm laterally of the centre line and 0.95 cm below the dural surface). The position of the electrodes in the trigeminal ganglia was checked visually at the end of each experiment after the removal of the brain. […] Microvascular changes in blood flow in the facial skin were measured by laser Doppler flow measurement using a Periflux Laser-Doppler system (PeriFLUX 4001, wavelength: 780 nm; time constant: 3 s; Perimed AB, Järfälla, S-17526, Sweden). […] Changes in blood flow were measured as flow in any desired units and expressed as the area under the flow curve (mm^2) according to Escott et al. (1995). […]
# [1] = Rattus norvegicus, iv, versus saline solution control, read-out: % inhibition compared with the control value
SMILES,inhibition at 0.03 mg/kg [1] [%],% of trigeminus stimulation [%],inhibition at 1 mg/kg [1] [%]
"NCCCC[C@H](NC(=O)[C@@H](Cc1cc(Br)c(O)c(Br)c1)NC(=O)N1CCC(N2Cc3ccccc3NC2=O)CC1)C(=O)N1CCN(c2ccncc2)CC1 [BIBN 4096 Cl, 1-[N^2-[3,5-dibromo-N-[[4-(3,4-dihydro-2(1H)-oxoquinazolin-3-yl)-1-piperidinyl]-carbonyl]-D-tyrosyl]-L-lysyl]-4-(4-pyridinyl)-piperazine]",27.1,60.3 ± 5.1,
CNS(=O)(=O)Cc1ccc2[nH]cc(CCN(C)C)c2c1 [sumatriptan],,68.8 ± 6.8,16.8
